Measured values as given in US9115092B2, “Substituted quinazoline and pyrido-pyrimidine derivatives” (Asana Biosciences, LLC, priority 2010, dated 2015).

How the values were obtained:
pAKT(5473) in PC3 tumor = assay: In vivo PK/PD study, PC3 tumor bearing mice, pAkt(5473); details: Mus musculus, 50 mg/kg po single dose
Procedure: (§1) PC3 cells were cultured at 37° C. in a 5% CO2 incubator using Hams F12 K medium. Ten million (10^7) cells were injected subcutaneously to the right flank region of athymic male mice (Harlan, age: 6-7 weeks, weight: about 20 g). Tumor bearing mice were randomized when the tumor volume reached about 250 mm^3 and three mice were used per each time point. Test compounds of formula (I) were formulated in 40% HPCD in 1×PBS, pH 7.4 and dosed orally at 50 mg/kg single dose (dose volume−10 mL/kg). Plasma and tumor samples were collected at 0 (vehicle control animals), 1, 4 and 24 hours post dosing. Blood was drawn (retro orbital) to a tube containing 0.2% EDTA for plasma collection. The tumor was excised from the mouse and immediately frozen in liquid nitrogen for PD analysis. Tumor and plasma drug concentrations were measured for PK analysis using LC-MS.
(§2) Snap frozen tumor samples were pulverized in a mortar (Belart) containing liquid nitrogen and tumor powder was stored at −80° C. until analysis. Pre coated ELISA kits (Cell Signaling Technology; pAKT(T308), CST#7135; pAKT(5473), CST#7134 and pS6RP, CST#7205) were used for PD analysis. Tumor powder was transferred to Eppendorf® tubes and lysis buffer (1 mL) was added to the powder. […] The detection for pAKT was based on chemiluminescence and pS6RP was based on absorbance. […]

BT474 tumor cells = assay: In vivo efficacy study (tumor growth suppression), BT474 xenograft; details: BT474 xenograft mice, after 14 days of dosing at 40 mg/kg bid po
PI3 kinase isoform β = PI3 kinase isoform β (Homo sapiens, UniProt P42338); assay: PI3 Kinase TR-FRET assay, isoform β; type: biochemical; details: read-out: inhibition of PI3 kinase isoform β, IC50
Procedure: (§3) The ability of compounds of the invention to inhibit PI3K activity was determined in a homogeneous TR-FRET assay using a PI3K assay kit (Millipore, USA; cat #33-016) according to manufacturer's instructions. PI3-Kinases (isoforms α, β, γ and δ) catalyze the phosphorylation of phosphatidylinositol, PIP2 to PIP3 in the presence of ATP and Mg^2+. The PIP3 product is detected by displacement of biotin-PIP3 from an energy transfer complex consisting of Europium labeled anti-GST monoclonal antibody, a GST-tagged PH domain, biotinylated PIP3 and Streptavidin-APC. Excitation of Europium in the complex results in an energy transfer to the APC and a fluorescence emission at 665 nm. The PIP3 product displaces biotin-PIP3 from the complex resulting in a loss of energy transfer and thus a decrease in signal.
(§4) To test for the ability of compounds to inhibit the activity of PI3Kα (wild-type), exemplary compounds of formula (I) were dissolved in DMSO and directly distributed into 384-well plates at a volume of 0.5 μL. 14.5 μL of P110/P85α/PIP2 mixture in buffer (obtained from the Millipore kit) containing MgCl2 (40 mM) and DTT (5 mM) was added to compound wells and incubated for 60 min at room temperature. P110/P85α was expressed in SF9 insect cells and purified nickel column extraction. Five ng of wild-type P110/P85α was used in the assay. The kinase reaction was started by the addition of ATP. The assay concentrations of both PIP2 and ATP were 10 μM. The reaction mixture was incubated for 30 min at room temperature and was terminated by the addition of stop mix and detection mix. Fluorescence was measured at 615 and 665 nm upon excitation at 340 nm in a Victor™ V5 fluorometer (Perkin Elmer, USA). The fluorescence emission ratio at 665 to 615 nm, proportional to the kinase activity, was plotted against the compound concentration to generate dose-response curves and IC50 values were determined using GraphPad Prism® 5 software.
(§5) The activity of PI3 kinase isoforms β, γ and δ were assayed in a similar manner to the assay protocol described above for PI3Kα, by substituting the appropriate p110/p85 isoform for the p110α/p85α. Compounds of formula (I) caused inhibition of PI3 kinase isoforms β, γ and δ as determined by these assays. For example, the compounds of examples 3, 51, 54, 111, 113, 115, and 253 each caused inhibition of PI3 kinase isoform β with IC50 values <50 nM. The compounds of examples 104, 133, 146 and 152 each caused inhibition of PI3 kinase isoform β with IC50 values <500 nM. The compounds of examples 3, 51, 54, 104, 111, 113, 115, 133, 253, and 152 each caused inhibition of PI3 kinase isoform γ with IC50 values <500 nM. […] The compounds of examples 2, 3, 51, 54, 111, 113, and 253 each caused inhibition of PI3 kinase isoform […] with IC50 values >1 μM.

PI3 kinase isoform δ = PI3 kinase isoform δ (Homo sapiens, UniProt O00329); assay: PI3 Kinase TR-FRET assay, isoform δ; type: biochemical; details: read-out: inhibition of PI3 kinase isoform δ, IC50
Procedure: as §3, §4, §5

[1] = test system: pAkt(T308) in BT474 tumor; assay: In vivo PK/PD study, BT474 tumor-bearing xenograft mice, pAkt(T308); details: 2 weeks at 40 mg/kg bid po
Procedure: as §1
Snap frozen tumor samples were pulverized in a mortar (Belart) containing liquid nitrogen and tumor powder was stored at −80° C. until analysis. […] The detection for pAKT was based on chemiluminescence and pS6RP was based on absorbance. […]
(§6) In vivo pharmacokinetic/pharmacodynamic (PK/PD) studies were also carried out using BT474 tumor cells and the corresponding tumor-bearing xenograft mice, and compounds of the invention were determined to be active in this assay. […]

pS6RP in BT474 tumor = assay: In vivo PK/PD study, BT474 tumor-bearing xenograft mice, pS6RP; details: for suppression of pS6RP in tumor tissue samples by Western blot: 2 weeks at 40 mg/kg bid po
Procedure: as §1
Snap frozen tumor samples were pulverized in a mortar (Belart) containing liquid nitrogen and tumor powder was stored at −80° C. until analysis. Pre coated ELISA kits (Cell Signaling Technology; pAKT(T308), CST#7135; pAKT(5473), CST#7134 and pS6RP, CST#7205) were used for PD analysis. Tumor powder was transferred to Eppendorf® tubes and lysis buffer (1 mL) was added to the powder. Protease and phosphatase inhibitors (SIGMA) and phenylmethanesulfonylfluoride (PMSF) were added to tumor powder and mixed by vortexing followed by sonication (15 sec). Samples were kept on an ice bath for 30 min. Supernatant was separated after centrifugation at 10,000 rpm for 20 min at 4° C. Supernatant was re-centrifuged and fresh supernatant was aliquoted to different tubes. Total protein was estimated using a BCA kit (Thermo Scientific) and 50 μg total protein was loaded to each well. […] The detection for pAKT was based on chemiluminescence and pS6RP was based on absorbance. […]
as §6

pAKT(T308) in PC3 tumor = assay: In vivo PK/PD study, PC3 tumor bearing mice, pAkt(T308) Western blot; details: 50 mg/kg po, at 8 hours
Procedure: as §1, §2

Chain of PI3 kinase isoform β (P42338 whole entry, the tested form may be a part, canonical isoform): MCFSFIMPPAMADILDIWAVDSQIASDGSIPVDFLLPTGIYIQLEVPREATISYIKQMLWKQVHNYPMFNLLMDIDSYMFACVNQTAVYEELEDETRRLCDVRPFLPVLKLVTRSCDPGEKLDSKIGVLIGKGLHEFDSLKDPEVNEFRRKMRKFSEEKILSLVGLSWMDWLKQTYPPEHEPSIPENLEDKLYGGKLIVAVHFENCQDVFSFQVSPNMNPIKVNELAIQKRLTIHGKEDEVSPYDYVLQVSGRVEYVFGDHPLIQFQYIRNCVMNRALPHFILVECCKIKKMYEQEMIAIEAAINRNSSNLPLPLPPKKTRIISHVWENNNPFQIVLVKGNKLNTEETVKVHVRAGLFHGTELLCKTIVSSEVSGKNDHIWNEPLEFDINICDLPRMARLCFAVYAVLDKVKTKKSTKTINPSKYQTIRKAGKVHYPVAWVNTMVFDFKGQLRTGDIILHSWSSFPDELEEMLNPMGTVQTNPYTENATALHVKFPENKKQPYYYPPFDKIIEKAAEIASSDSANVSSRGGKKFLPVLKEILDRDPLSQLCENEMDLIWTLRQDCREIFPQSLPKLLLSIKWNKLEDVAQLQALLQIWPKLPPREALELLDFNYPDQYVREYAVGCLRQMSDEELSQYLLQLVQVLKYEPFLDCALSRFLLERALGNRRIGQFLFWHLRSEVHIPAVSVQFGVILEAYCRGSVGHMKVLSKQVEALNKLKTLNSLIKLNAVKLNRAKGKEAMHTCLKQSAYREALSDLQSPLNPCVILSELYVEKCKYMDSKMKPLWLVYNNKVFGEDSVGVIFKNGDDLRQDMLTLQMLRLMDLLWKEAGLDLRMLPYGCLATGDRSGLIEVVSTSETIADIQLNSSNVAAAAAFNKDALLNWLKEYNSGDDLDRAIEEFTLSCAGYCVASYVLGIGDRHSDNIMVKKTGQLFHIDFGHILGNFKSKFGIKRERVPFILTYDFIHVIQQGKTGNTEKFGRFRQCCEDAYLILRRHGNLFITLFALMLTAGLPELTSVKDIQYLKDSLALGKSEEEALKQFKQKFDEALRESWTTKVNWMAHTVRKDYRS
Chain of PI3 kinase isoform β (P27986 whole entry partner, the tested form may be a part, canonical isoform): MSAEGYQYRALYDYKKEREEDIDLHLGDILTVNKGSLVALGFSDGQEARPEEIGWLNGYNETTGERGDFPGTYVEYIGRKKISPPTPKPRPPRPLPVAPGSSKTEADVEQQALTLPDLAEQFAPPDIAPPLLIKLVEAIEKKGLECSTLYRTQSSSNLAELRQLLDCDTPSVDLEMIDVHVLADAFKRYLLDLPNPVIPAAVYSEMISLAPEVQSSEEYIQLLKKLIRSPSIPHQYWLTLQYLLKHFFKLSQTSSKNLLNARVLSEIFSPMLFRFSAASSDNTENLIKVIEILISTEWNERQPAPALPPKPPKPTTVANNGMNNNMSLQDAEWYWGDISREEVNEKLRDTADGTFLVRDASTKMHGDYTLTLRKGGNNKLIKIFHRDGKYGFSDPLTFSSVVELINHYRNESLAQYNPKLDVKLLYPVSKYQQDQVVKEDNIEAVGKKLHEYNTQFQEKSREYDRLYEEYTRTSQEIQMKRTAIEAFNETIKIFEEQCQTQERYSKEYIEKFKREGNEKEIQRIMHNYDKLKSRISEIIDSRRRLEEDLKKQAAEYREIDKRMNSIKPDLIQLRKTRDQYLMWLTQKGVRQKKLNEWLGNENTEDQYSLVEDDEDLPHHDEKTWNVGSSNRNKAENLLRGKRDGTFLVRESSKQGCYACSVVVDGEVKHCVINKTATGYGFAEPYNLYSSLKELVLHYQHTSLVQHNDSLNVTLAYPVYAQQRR
Chain of PI3 kinase isoform δ (O00329 whole entry, canonical isoform): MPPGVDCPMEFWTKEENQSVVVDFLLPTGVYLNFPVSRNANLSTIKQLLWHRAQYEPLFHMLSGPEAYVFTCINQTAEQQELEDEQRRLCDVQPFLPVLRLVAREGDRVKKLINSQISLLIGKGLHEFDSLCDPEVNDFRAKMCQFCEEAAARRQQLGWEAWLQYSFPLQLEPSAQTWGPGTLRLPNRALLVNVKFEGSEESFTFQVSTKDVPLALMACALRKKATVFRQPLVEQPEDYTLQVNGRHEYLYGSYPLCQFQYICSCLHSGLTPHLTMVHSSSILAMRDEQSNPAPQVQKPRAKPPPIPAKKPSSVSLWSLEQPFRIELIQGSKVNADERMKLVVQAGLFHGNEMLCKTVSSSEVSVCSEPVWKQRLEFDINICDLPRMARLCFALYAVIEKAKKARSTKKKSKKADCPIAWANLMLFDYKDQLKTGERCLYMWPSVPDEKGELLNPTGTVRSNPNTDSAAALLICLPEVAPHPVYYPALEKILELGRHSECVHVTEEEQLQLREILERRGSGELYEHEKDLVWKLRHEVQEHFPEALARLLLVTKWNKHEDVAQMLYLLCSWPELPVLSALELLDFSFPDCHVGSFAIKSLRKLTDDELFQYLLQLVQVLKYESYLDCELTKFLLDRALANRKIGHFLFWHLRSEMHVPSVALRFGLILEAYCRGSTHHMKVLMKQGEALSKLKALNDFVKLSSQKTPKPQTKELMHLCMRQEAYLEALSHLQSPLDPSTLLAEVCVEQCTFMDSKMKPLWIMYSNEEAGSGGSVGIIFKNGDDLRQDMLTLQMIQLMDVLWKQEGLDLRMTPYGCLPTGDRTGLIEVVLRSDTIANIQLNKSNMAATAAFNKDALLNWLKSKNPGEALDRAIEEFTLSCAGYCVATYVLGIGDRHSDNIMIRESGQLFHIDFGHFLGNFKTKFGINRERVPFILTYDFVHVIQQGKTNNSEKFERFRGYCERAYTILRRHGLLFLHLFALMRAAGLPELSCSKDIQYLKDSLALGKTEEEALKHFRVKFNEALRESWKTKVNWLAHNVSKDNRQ
Chain of PI3 kinase isoform δ (P27986 whole entry partner, canonical isoform): as the sequence (P27986 whole entry partner, the tested form may be a part, canonical isoform) above

IC50 (PI3 kinase isoform β) [nM] | IC50 (PI3 kinase isoform δ) [nM] | Compound | tumor growth inhibition relative to vehicle control group (BT474 tumor cells) | suppression of pAkt(T308) in tumor tissue samples by Western blot [1] | suppression of pS6RP in tumor tissue samples by Western blot (pS6RP in BT474 tumor) | suppression of pAkt(T308) by Western blot analysis (pAKT(T308) in PC3 tumor) | further results
< 500 |  | CN(C)C(=O)c1ccc(NC(=O)Nc2ccc(-c3nc(N4CCOCC4)c4ccc(-c5cccnc5F)cc4n3)cc2)c(F)c1 [Example 146, 3-fluoro-4-(3-(4-(7-(2-fluoropyridin-3-yl)-4-morpholino-quinazolin-2-yl)phenyl)ureido)-N,N-dimethyl-benzamide] |  |  |  | significant suppression | 
< 500 |  | CN(C)C(=O)c1ccc(NC(=O)Nc2ccc(-c3nc(N4CCOCC4)c4ccc(-c5cccnc5)cc4n3)cc2)c(F)c1 [Example 152, 3-fluoro-N,N-dimethyl-4-(3-(4-(4-morpholino-7-(pyridin-3-yl)quinazolin-2-yl)phenyl)ureido)-benzamide] |  |  |  |  | 

Further lines, the compound ahead of its results:

Compound | IC50 (PI3 kinase isoform β) [nM] | IC50 (PI3 kinase isoform δ) [nM] | tumor growth inhibition relative to vehicle control group (BT474 tumor cells) | suppression of pAkt(T308) in tumor tissue samples by Western blot [1] | suppression of pS6RP in tumor tissue samples by Western blot (pS6RP in BT474 tumor) | suppression of pAkt(T308) by Western blot analysis (pAKT(T308) in PC3 tumor) | further results
CN(C)C(=O)c1ccc(NC(=O)Nc2ccc(-c3nc(N4CCOCC4)c4ccc(-c5cncnc5)cc4n3)cc2)cc1 [Example 1, N,N-Dimethyl-4-(3-{4-[4-morpholin-4-yl-7-pyrimidin-5-yl-quinazolin-2-yl)-phenyl]-ureido}-benzamide] |  |  |  |  |  |  | inhibition at 50 mg/kg (pAKT(5473) in PC3 tumor; at 1 and 4 hours): ~50%
Cc1ccc(-c2ccc3c(N4CCOCC4)nc(-c4ccc(NC(=O)Nc5ccc(C(=O)N(C)C)cc5)cc4)nc3c2)o1 [Example 2, N,N-Dimethyl-4-(3-{4-[7-(5-methyl-furan-2-yl)-4-morpholin-4-yl-quinazolin-2-yl]-phenyl}-ureido)-benzamide] | < 1000 | > 1000 | about 65% | significant suppression | significant suppression |  | inhibition at 50 mg/kg (pAKT(5473) in PC3 tumor; at 4 and 24 hours): 25 to 30%
CN(C)C(=O)c1ccc(NC(=O)Nc2ccc(-c3nc(N4CCOCC4)c4ccc(-c5ccco5)cc4n3)cc2)cc1 [Example 51, 4-{3-[4-(7-furan-2-yl-4-morpholin-4-yl-quinazolin-2-yl)-phenyl]-ureido}-N,N-dimethyl-benzamide] |  | > 1000 | about 70% | significant suppression | significant suppression |  | inhibition at 30 mg/kg (pS6RP in BT474 tumor; Mus musculus, BT-474, 30 mg/kg po, at 4 and 24 hours): 30 to 40%
CN(C)C(=O)c1ccc(NC(=O)Nc2ccc(-c3nc(N4CCOCC4)c4ccc(-c5cncnc5)cc4n3)cc2)c(F)c1 [Example 133, 3-fluoro-N,N-dimethyl-4-(3-(4-(4-morpholino-7-(pyrimidin-5-yl)quinazolin-2-yl)phenyl)ureido)-benzamide] | < 500 |  |  |  |  | significant suppression | 
